Reference: article PMC7012052, “Discovery of antimicrobial compounds targeting bacterial type FAD synthetases” (Journal of Enzyme Inhibition and Medicinal Chemistry, 2017)
In brackets after ≈: the same amount, converted by molar mass. Like-named read-outs stand apart in the source and are kept apart here. Marks after values point to notes of the source that are not given here.

Key:
[1] = system: S. pneumoniae ATCC 49619; experiment: MIC by resazurin microplate assay (broth microdilution); format: cell-based, Streptococcus pneumoniae
[2] = system: M. tuberculosis ATCC 27,294; experiment: as above; format: cell-based, Mycobacterium tuberculosis
[3] = system: C. ammoniagenes ATCC 6872; experiment: as above; format: cell-based, Corynebacterium ammoniagenes; conditions: Corynebacterium ammoniagenes, ATCC6872, 16 h
[4] = molecular target: T1, CaFADS (Corynebacterium ammoniagenes, UniProt Q59263); experiment: Isothermal titration calorimetry (ITC) of hits binding to CaFADS; conditions: ITC 25 °C
T1 construct: Recombinant CaFADS was overexpressed in BL21 (DE3) E. coli cells and purified as previously described; made in house; host or cells: E. coli BL21 (DE3)
Method: ITC experiments were performed to characterise the protein’s affinity for the selected compounds, as also the thermodynamic parameters that drive the interaction. Experiments were carried out in an AutoITC200 (MicroCal) thermostated at 25 °C. In these experiments, ∼400 µM of each compound were used to titrate ∼25 µM CaFADS contained in a 200 µL cell. However, when saturation of the protein was not reached, higher concentrations of compounds were employed. The titrations were performed by stepwise injections of the titrating compound. Up to 19 injections of 2 µl were added to the cell sample and mixed using a 1000 rpm stirrer syringe. The compounds and the protein were dissolved in 20 mM PIPES, pH 7.0, 10 mM MgCl2 and degassed prior to titration. DMSO was added to the protein and ligand samples, until reach a final concentration of 3%. The association constant (Ka), the enthalpy variation (ΔH) and the binding stoichiometry (N), were obtained through non-lineal regression of the data to a model for one or two independent binding sites, implemented in Origin 7.0 (OriginLab) as previously described[27]^,[29]. The entropic contribution (−TΔS), the Gibbs free energy (ΔG) and the dissociation constant (Kd) were obtained through essential thermodynamic equations.

[5] = molecular target: SpnFADS FMNAT activity (Streptococcus pneumoniae, UniProt A0A0H2UPY5); experiment: biochemical
Method: (§1) Then, the RFK and FMNAT reactions were individually assayed in the presence of the HTS hits at 25 °C. Reaction mixtures contained 50 µM ATP, 5 µM RF, 0.4 µM CaFADS in 20 mM PIPES, pH 7.0, 0.8 mM MgCl2, when assaying the RFK activity, and 50 µM ATP, 10 µM FMN, 0.4 µM CaFADS in 20 mM PIPES, pH 7.0, 10 mM MgCl2 when measuring the FMNAT reaction. […] Finally, reactions were stopped by boiling the samples at 100 °C for 5 min, and the precipitated protein was eliminated through centrifugation. The transformation of RF into FMN or FAD was evaluated through flavins separation by HPLC, as previously described. […] When assaying the HTS hits against the FMNAT activity of SpnFADS, similar conditions were used but samples contained 3 mM sodium dithionite to maintain the flavin in its reduced state. Data were processed as previously reported. All the experiments were performed in triplicate.
(§2) Experiments were performed and analysed through HPLC as described above. Positive controls (without any hit compound) were included in every reaction set. DMSO concentration was kept at 2.5% in all samples. All the experiments were performed in triplicate.

[6] = molecular target: SpnFADS RFK activity (Streptococcus pneumoniae, UniProt A0A0H2UPY5); experiment: biochemical; conditions: for IC50: compounds assayed 0–100 μM, 25 °C
Method: as §1, §2

[7] = molecular target: T2, CaFADS FMNAT activity (Corynebacterium ammoniagenes, UniProt Q59263); experiment: FMNAT activity of CaFADS: residual activity, IC50, inhibition mechanism (HPLC); format: biochemical; conditions: for Inhibition mechanism / Ki: CaFADS FMNAT; for Ki: global Lineweaver–Burk fit; for remaining activity at 250 µM: pH 7, read-out: % Residual FMNAT activity; for remaining activity at 50 µM: read-out: Residual activity (FMNAT)
T2 construct: Recombinant CaFADS was overexpressed in BL21 (DE3) E. coli cells and purified as previously described; made in house; host or cells: E. coli BL21 (DE3)
Method: as §1, §2
All the experiments were carried out in 20 mM PIPES, 10 mM MgCl2, pH 7.0, 2.5% DMSO at 25 °C, being the final reaction volume 500 µl. The reactions were initiated by addition of CaFADS at a final concentration of ∼40 nM, followed by 1 min incubation. The flavin composition of the supernatant was analysed as previously described. All the experiments were performed in triplicate. The effect of the inhibitors on Km and Vmax was determined by fitting the data sets to the Michaelis–Menten model. Additionally, data were globally fit to Lineweaver–Burk equations for competitive, uncompetitive, non-competitive or mixed inhibition, yielding Ki, as well as Ki′ when applying, for each compound (Equations (1–4), respectively).

[8] = molecular target: T3, CaFADS RFK activity (Corynebacterium ammoniagenes, UniProt Q59263); experiment: RFK activity of CaFADS in the presence of HTS hits (flavins separated by HPLC); format: biochemical; conditions: pH 7, read-out: % Residual RFK activity
T3 construct: Recombinant CaFADS was overexpressed in BL21 (DE3) E. coli cells and purified as previously described; made in house; host or cells: E. coli BL21 (DE3)
Method: as §1

[9] = for 24: Site 1–2, average value where N ≈ 2
[10] = read-out: RFK activity Res. activity
[11] = saturating ATP (regarding the FMN substrate)
[12] = saturating FMN (regarding the ATP substrate)
[13] = saturating ATP, varying FMN, inhibitor 0.2 μM
[14] = saturating ATP, varying FMN, inhibitor […]
[15] = saturating FMN, varying ATP, inhibitor 0.2 μM
[16] = saturating FMN, varying ATP, inhibitor 0.4 μM
[17] = saturating FMN, varying ATP, inhibitor […]

T2 sequence (Q59263 whole entry): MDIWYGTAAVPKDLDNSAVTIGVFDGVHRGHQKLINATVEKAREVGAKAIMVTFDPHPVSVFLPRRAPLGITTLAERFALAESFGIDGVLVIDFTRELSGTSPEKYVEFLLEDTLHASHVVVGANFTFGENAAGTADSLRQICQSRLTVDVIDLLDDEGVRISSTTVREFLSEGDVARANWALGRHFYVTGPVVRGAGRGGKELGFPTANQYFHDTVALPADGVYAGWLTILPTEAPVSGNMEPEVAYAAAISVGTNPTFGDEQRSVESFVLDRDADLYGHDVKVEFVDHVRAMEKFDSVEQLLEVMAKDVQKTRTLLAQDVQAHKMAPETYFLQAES
T1 sequence (Q59263 whole entry): as above
SpnFADS RFK activity, sequence (A0A0H2UPY5 entry or part of it): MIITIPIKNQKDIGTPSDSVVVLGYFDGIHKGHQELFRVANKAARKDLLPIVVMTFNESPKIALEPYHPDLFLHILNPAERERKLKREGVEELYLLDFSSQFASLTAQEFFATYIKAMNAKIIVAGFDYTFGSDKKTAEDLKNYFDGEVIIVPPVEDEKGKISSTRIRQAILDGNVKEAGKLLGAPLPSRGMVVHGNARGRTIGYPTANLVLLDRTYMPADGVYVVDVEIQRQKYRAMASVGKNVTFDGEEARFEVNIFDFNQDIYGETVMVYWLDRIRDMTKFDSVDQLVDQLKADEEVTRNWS
SpnFADS FMNAT activity, sequence (A0A0H2UPY5 entry or part of it): as above
T3 sequence (Q59263 whole entry): as the sequence (Q59263 whole entry) above

## COc1cc(-c2ccc(/N=N/c3ccc4c(S(=O)(=O)O)cc(S(=O)(=O)O)c(N)c4c3O)c(OC)c2)ccc1/N=N/c1ccc2c(S(=O)(=O)O)cc(S(=O)(=O)O)c(N)c2c1O [HTS hit 24, Chicago sky blue 6B]
[1]; Streptococcus pneumoniae, ATCC49619, 10 h; read-out: Minimal inhibitory concentration (MIC) S. pneumoniae
  MIC: > 64 µM
[2]; Mycobacterium tuberculosis, ATCC27, 144 h; read-out: Minimal inhibitory concentration (MIC) M. tuberculosis
  MIC: 16 to 32 µM (≈ 14.5 to 29 µg/mL)
[3]; read-out: Minimal inhibitory concentration (MIC) C. ammoniagenes
  MIC: 16 to 32 µM (≈ 14.5 to 29 µg/mL)
[4]; 3% DMSO, for 24: Site 1–2
  N (binding stoichiometry): ≈ 2
[4]; Site 3
  ΔG: -5.2 ± 0.7 kcal/mol
  ΔH: 18.4 ± 2.2 kcal/mol
  −TΔS: -23.6 ± 1.9 kcal/mol
[4]; Site 3 (low affinity site)
  N (binding stoichiometry): ≈ 1
[4]; [9]
  ΔG: −8.1 ± 1.0^a kcal/mol
  ΔH: −4.2 ± 0.5^a kcal/mol
  −TΔS: −3.9 ± 0.5^a kcal/mol
[4]; Kd, 3% DMSO, for 24: Site 1–2, average value for two hit molecules where N ≈ 2
  Kd: 1100 ± 100 nM
[4]; Kd, Site 3 (low affinity site)
  Kd: 161000 ± 20000 nM
[5]; SpnFADS, 100 μM of each compound, 25 °C, n = 3, mean ± SD, read-out: FMNAT activity Res. activity
  activity at 100 µM: 0%
[5]; SpnFADS, compounds assayed 0–100 μM, 25 °C, read-out: FMNAT activity IC50
  IC50: 70000 ± 6000 nM
[6]; SpnFADS, read-out: RFK activity IC50
  IC50: > 100000 nM
[6]; [10]
  activity at 100 µM: 84 ± 9%
[7]
  IC50: 400 ± 100 nM
  remaining activity at 250 µM: ≤ 5%
  remaining activity at 50 µM: 3.6 ± 0.2%
[7]; [11]
  Inhibition mechanism: Non-competitive
[7]; [12]
  Inhibition mechanism: Uncompetitive
[7]; saturating ATP, varying FMN
  Ki: 70 ± 10 nM
[7]; saturating FMN, varying ATP
  Ki: 80 ± 30 nM
[7]; [13]
  apparent kcat: 0.163 ± 0.0217 s⁻¹
[7]; saturating ATP, varying FMN, inhibitor 0.4 μM
  apparent kcat: 0.0933 ± 0.01 s⁻¹
[7]; saturating ATP, varying FMN, inhibitor 0.6 μM
  apparent kcat: 0.095 ± 0.0217 s⁻¹
[7]; [14]
  apparent kcat: 0.405 ± 0.0683 s⁻¹
[7]; saturating FMN, varying ATP, inhibitor 0.04 μM
  apparent kcat: 0.375 ± 0.08 s⁻¹
[7]; [15]
  apparent kcat: 0.0717 ± 0.0067 s⁻¹
[7]; [16]
  apparent kcat: 0.03 ± 0.0017 s⁻¹
[7]; [17]
  apparent kcat: 0.12 ± 0.0067 s⁻¹
[8]
  remaining activity at 250 µM: ≥ 75%

## Cc1cc2c(C(C)C)c(O)c(O)c(C=O)c2c(O)c1-c1c(C)cc2c(C(C)C)c(O)c(O)c(C=O)c2c1O [HTS hit 27, gossypol]
[1]; Streptococcus pneumoniae, ATCC49619, 10 h, read-out: Minimal inhibitory concentration (MIC) S. pneumoniae
  MIC: > 64 µM
[2]; Mycobacterium tuberculosis, ATCC27, 144 h, read-out: Minimal inhibitory concentration (MIC) M. tuberculosis
  MIC: > 64 µM
[3]; read-out: Minimal inhibitory concentration (MIC) C. ammoniagenes, assayed 0.125–64 μM, 16 h at 37 °C, BHI
  MIC: ~64 µM (≈ 33.2 µg/mL)
[4]; 3% DMSO, for 24: Site 1–2
  N (binding stoichiometry): ≈ 2
[4]; 3% DMSO, for 24: Site 1–2, average value for two hit molecules where N ≈ 2, read-out: Kd
  Kd: 700 ± 70 nM
[4]; [9]
  ΔG: −8.4 ± 0.9^a kcal/mol
  ΔH: −3.1 ± 0.1^a kcal/mol
  −TΔS: −5.3 ± 0.4^a kcal/mol
[5]
  IC50: 51000 ± 6000 nM
[5]; read-out: FMNAT activity Res. activity
  remaining activity at 100 µM: 0%
[6]; RFK activity IC50, SpnFADS
  IC50: 6000 ± 1000 nM
[6]; [10]
  remaining activity at 100 µM: 25 ± 4%
[7]
  IC50: 500 ± 100 nM
  remaining activity at 250 µM: ≤ 5%
  remaining activity at 50 µM: 6.9 ± 0.8%
[7]; [11]
  Inhibition mechanism: Non-competitive
[7]; [12]
  Inhibition mechanism: Competitive
[7]; saturating ATP, varying FMN
  Ki: 80 ± 10 nM
[7]; saturating FMN, varying ATP
  Ki: 60 ± 10 nM
[7]; saturating ATP, varying FMN, inhibitor 0.05 μM
  apparent kcat: 0.36 ± 0.0483 s⁻¹
[7]; saturating ATP, varying FMN, inhibitor 0.1 μM
  apparent kcat: 0.268 ± 0.0283 s⁻¹
[7]; [13]
  apparent kcat: 0.252 ± 0.025 s⁻¹
[7]; saturating ATP, varying FMN, inhibitor 1 μM
  apparent kcat: 0.108 ± 0.0033 s⁻¹
[7]; [14]
  apparent kcat: 0.167 ± 0.013 s⁻¹
[7]; saturating FMN, varying ATP, inhibitor 0.1 μM
  apparent kcat: 0.38 ± 0.0217 s⁻¹
[7]; [15]
  apparent kcat: 0.37 ± 0.0233 s⁻¹
[7]; [16]
  apparent kcat: 0.302 ± 0.0267 s⁻¹
[7]; saturating FMN, varying ATP, inhibitor 1 μM
  apparent kcat: 0.208 ± 0.0083 s⁻¹
[7]; [17]
  apparent kcat: 0.285 ± 0.055 s⁻¹
[8]
  remaining activity at 250 µM: ≥ 75%
